In ChEMBL document CHEMBL1909046, “DrugMatrix in vitro pharmacology data”:
pIC50, pKi: −log10 of the molar value.

Tests used:
[1] = target: T1, Muscarinic acetylcholine receptor M5 (Homo sapiens, UniProt P08912); format: cell membranes, CHO-K1, Membrane; settings: for IC50: cho-k1; for all read-outs here: in other assays of this panel Not Active means under 50% inhibition at 10 µM
T1 sequence (P08912 whole entry): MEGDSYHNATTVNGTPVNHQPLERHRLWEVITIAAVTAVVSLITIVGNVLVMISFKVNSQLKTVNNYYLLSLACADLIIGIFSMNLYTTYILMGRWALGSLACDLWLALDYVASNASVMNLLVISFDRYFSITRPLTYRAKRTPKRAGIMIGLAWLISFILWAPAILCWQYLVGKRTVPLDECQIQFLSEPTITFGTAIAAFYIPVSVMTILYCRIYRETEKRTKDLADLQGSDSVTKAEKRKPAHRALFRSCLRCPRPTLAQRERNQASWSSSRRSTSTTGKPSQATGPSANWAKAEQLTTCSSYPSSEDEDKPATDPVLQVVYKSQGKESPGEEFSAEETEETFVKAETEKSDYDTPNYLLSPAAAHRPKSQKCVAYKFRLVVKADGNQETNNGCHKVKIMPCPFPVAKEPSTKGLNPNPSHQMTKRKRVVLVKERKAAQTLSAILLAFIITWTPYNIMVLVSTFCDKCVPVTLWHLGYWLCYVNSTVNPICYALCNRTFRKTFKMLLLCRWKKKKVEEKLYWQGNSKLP

[2] = DRUGMATRIX: GABAA, Chloride Channel, TBOB radioligand binding (ligand: [3H] TBOB); format: cell membranes, Rattus norvegicus, Wistar, Cerebral cortex, Membrane; settings: Not Active = under 50% inhibition at 10 µM
[3] = target: T2, Cytochrome P450 1A2 (Homo sapiens, UniProt P05177); settings: bti-tn-5b1-4; note: in other assays of this panel Not Active means under 50% inhibition at 10 µM
T2 sequence (P05177 whole entry): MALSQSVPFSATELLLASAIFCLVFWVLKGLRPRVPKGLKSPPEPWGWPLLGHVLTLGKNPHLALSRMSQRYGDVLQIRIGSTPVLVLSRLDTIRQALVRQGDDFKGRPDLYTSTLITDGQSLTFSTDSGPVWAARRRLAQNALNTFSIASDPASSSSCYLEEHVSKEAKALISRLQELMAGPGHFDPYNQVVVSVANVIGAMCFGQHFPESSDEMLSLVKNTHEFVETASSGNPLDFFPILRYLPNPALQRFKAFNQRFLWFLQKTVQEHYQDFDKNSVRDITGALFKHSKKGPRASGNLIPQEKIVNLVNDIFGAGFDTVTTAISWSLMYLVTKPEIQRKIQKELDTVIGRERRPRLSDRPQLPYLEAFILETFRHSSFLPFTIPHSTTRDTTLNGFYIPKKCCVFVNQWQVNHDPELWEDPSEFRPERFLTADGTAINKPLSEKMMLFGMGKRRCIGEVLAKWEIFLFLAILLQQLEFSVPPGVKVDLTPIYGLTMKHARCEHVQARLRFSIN

[4] = DRUGMATRIX: Interleukin IL-1 radioligand binding (ligand: [125I] interleukin 1beta); format: cell membranes, Membrane; settings: nih3t3; Not Active = under 50% inhibition at 10 µM
[5] = DRUGMATRIX: Glutamate, AMPA radioligand binding (ligand: [3H] AMPA); format: cell membranes, Rattus norvegicus, Wistar, Cerebral cortex, Membrane; settings: Not Active = under 50% inhibition at 10 µM
[6] = DRUGMATRIX: Purinergic P2X radioligand binding (ligand: [3H] alpha, beta-Methylene-ATP); format: cell membranes, Oryctolagus cuniculus, New Zealand albino, Urinary bladder, Membrane; settings: Not Active = under 50% inhibition at 10 µM
[7] = DRUGMATRIX: Nicotinic Acetylcholine radioligand binding (ligand: [125I] Epibatidine); format: cell membranes, Membrane; settings: imr-32; Not Active = under 50% inhibition at 10 µM
[8] = target: 5-hydroxytryptamine receptor 4 (Cavia porcellus, UniProt O70528); format: cell membranes, Dunkin-Hartley, Striatum, Membrane; note: in other assays of this panel Not Active means under 50% inhibition at 10 µM
Chain of 5-hydroxytryptamine receptor 4 (O70528 whole entry): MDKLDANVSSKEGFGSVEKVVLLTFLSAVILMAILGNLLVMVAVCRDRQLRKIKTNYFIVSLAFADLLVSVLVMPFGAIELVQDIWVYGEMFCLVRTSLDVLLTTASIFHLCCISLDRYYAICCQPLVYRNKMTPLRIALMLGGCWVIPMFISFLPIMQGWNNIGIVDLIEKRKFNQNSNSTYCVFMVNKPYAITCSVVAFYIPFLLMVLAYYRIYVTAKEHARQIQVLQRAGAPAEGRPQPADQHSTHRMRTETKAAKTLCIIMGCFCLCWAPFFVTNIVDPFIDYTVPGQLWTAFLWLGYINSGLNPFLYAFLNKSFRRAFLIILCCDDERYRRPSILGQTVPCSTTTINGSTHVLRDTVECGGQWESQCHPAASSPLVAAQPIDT

Structure (SMILES): CC(O)COC[C@H]1O[C@@H]2O[C@H]3[C@H](O)[C@@H](O)[C@@H](O[C@H]4[C@H](O)[C@@H](O)[C@@H](O[C@H]5[C@H](O)[C@@H](O)[C@@H](O[C@H]6[C@H](O)[C@@H](O)[C@@H](O[C@H]7[C@H](O)[C@@H](O)[C@@H](O[C@H]8[C@H](O)[C@@H](O)[C@@H](O[C@H]1[C@H](O)[C@H]2O)O[C@@H]8COCC(C)O)O[C@@H]7COCC(C)O)O[C@@H]6COCC(C)O)O[C@@H]5COCC(C)O)O[C@@H]4COCC(C)O)O[C@@H]3COCC(C)O (stereo partly drawn) [2-HYDROXYPROPYL-BETA-CYCLODEXTRIN]
- IC50 [1]: Not Active
- IC50 [2]: Not Active
- Ki [2]: Not Active
- IC50 [3]: Not Active
- Ki [3]: Not Active
- IC50 [4]: Not Active
- Ki [4]: Not Active
- IC50 [5]: Not Active
- Ki [5]: Not Active
- IC50 [6]: Not Active
- Ki [6]: Not Active
- IC50 [7]: Not Active
- Ki [7]: Not Active
- IC50 [8]: Not Active

Structure (SMILES): CS(=O)(=O)Nc1ccc([N+](=O)[O-])cc1Oc1ccccc1 [NIMESULIDE]
- IC50 [1]: Not Active
- IC50 [2]: Not Active
- Ki [2]: Not Active
- IC50 [3]: Not Active
- Ki [3]: Not Active
- IC50 [4]: Not Active
- Ki [4]: Not Active
- IC50 [5]: Not Active
- Ki [5]: Not Active
- IC50 [6]: Not Active
- Ki [6]: Not Active
- IC50 [7]: Not Active
- Ki [7]: Not Active
- IC50 [8]: Not Active

Structure (SMILES): C[N+](C)(C)C[C@H](O)CC(=O)[O-] [LEVOCARNITINE]
- IC50 [1]: Not Active
- IC50 [2]: Not Active
- Ki [2]: Not Active
- IC50 [3]: Not Active
- Ki [3]: Not Active
- IC50 [4]: Not Active
- Ki [4]: Not Active
- IC50 [5]: Not Active
- Ki [5]: Not Active
- IC50 [6]: Not Active
- Ki [6]: Not Active
- IC50 [7]: Not Active
- Ki [7]: Not Active
- IC50 [8]: Not Active

Structure (SMILES): O=C(O)c1cc(-c2ccc(F)cc2F)ccc1O [DIFLUNISAL]
- IC50 [1]: Not Active
- IC50 [2]: Not Active
- Ki [2]: Not Active
- IC50 [3]: Not Active
- Ki [3]: Not Active
- IC50 [4]: Not Active
- Ki [4]: Not Active
- IC50 [5]: Not Active
- Ki [5]: Not Active
- IC50 [6]: Not Active
- Ki [6]: Not Active
- IC50 [7]: Not Active
- Ki [7]: Not Active
- IC50 [8]: Not Active

Structure (SMILES): CN1CCN(C(c2ccccc2)c2ccccc2)CC1 [CYCLIZINE]
- pIC50 ([1]; read-out: IC50): 6.20
- pKi ([1]; read-out: Ki): 6.34
- IC50 [2]: Not Active
- Ki [2]: Not Active
- IC50 [3]: Not Active
- Ki [3]: Not Active
- IC50 [4]: Not Active
- Ki [4]: Not Active
- IC50 [5]: Not Active
- Ki [5]: Not Active
- IC50 [6]: Not Active
- Ki [6]: Not Active
- IC50 [7]: Not Active
- Ki [7]: Not Active
- IC50 [8]: Not Active

Structure (SMILES): CCCNC(=O)NS(=O)(=O)c1ccc(Cl)cc1 [CHLORPROPAMIDE]
- IC50 [1]: Not Active
- IC50 [2]: Not Active
- Ki [2]: Not Active
- IC50 [3]: Not Active
- Ki [3]: Not Active
- IC50 [4]: Not Active
- Ki [4]: Not Active
- IC50 [5]: Not Active
- Ki [5]: Not Active
- IC50 [6]: Not Active
- Ki [6]: Not Active
- IC50 [7]: Not Active
- Ki [7]: Not Active
- IC50 [8]: Not Active

Structure (SMILES): CO/N=C(\C(=O)N[C@@H]1C(=O)N2C(C(=O)O)=C(COC(C)=O)CS[C@H]12)c1csc(N)n1 [CEFOTAXIME]
- IC50 [1]: Not Active
- IC50 [2]: Not Active
- Ki [2]: Not Active
- IC50 [3]: Not Active
- Ki [3]: Not Active
- IC50 [4]: Not Active
- Ki [4]: Not Active
- IC50 [5]: Not Active
- Ki [5]: Not Active
- IC50 [6]: Not Active
- Ki [6]: Not Active
- IC50 [7]: Not Active
- Ki [7]: Not Active
- IC50 [8]: Not Active

Structure (SMILES): Nc1cc(-c2ccncc2)c[nH]c1=O [INAMRINONE]
- IC50 [1]: Not Active
- IC50 [2]: Not Active
- Ki [2]: Not Active
- IC50 [3]: Not Active
- Ki [3]: Not Active
- IC50 [4]: Not Active
- Ki [4]: Not Active
- IC50 [5]: Not Active
- Ki [5]: Not Active
- IC50 [6]: Not Active
- Ki [6]: Not Active
- IC50 [7]: Not Active
- Ki [7]: Not Active
- IC50 [8]: Not Active
